According to patent publication US20230280275A1, “PHOTOACTIVATABLE VIBRATIONAL PROBES AND USES THEREOF” (California Institute of Technology, priority 2021, published 2023):
Blank lines part the entries; values can stand above or below the compound they belong to.

Legend:
[1] = UV-Vis absorption spectra; assay type: physicochemical; settings: 20 uM in DMSO
Procedure: UV-Vis absorption spectra were recorded on a Varian Cary 50 UV-Vis Spectrophotometer (Agilent).

[2] = Spontaneous Raman / hyperspectral SRS spectroscopy of probes and uncaged alkynes; assay type: physicochemical; settings: for Raman Peak: cell silent region, model systems; for RIE (relative Raman intensity to EdU): 10 mM EdU (H2O) as standard
Source text: (§1) An integrated laser (picoEMERALD, Applied Physics and Electronics, Inc.) was used as a light source for both pump and Stokes beams. It produces 2 ps pump (tunable from 770 nm - 990 nm, bandwidth 0.5 nm, spectral bandwidth ~ 7 cm-1 ) and Stokes (1031.2 nm, spectral bandwidth 10 cm-1 ) beams with 80 MHz repetition rate. Stokes beam is modulated at 20 MHz by an internal electro-optic modulator. The spatially and temporally overlapped pump and Stokes beams are introduced into an inverted multiphoton laser scanning microscopy (FV3000, Olympus), and then focused onto the sample by a 25X water objective (XLPLN25XWMP, 1.05 N.A., Olympus). Transmitted pump and Stokes beams are collected by a high N.A. condenser lens (oil immersion, 1.4 N.A., Olympus) and pass through a bandpass filter (893/209 BrightLine, 25 mm, AVR Optics) to filter out Stokes beam. A large area (10×10 mm) Si photodiode (S3590-09, Hamamatsu) is used to measure the remaining pump beam intensity. 64 V DC voltage was used on the photodiode to increase saturation threshold and reduce response time. The output current is terminated by a 50 Ω terminator and pre-filtered by an 19.2-23.6-MHz band-pass filter (BBP-21.4+, Mini-Circuits) to reduce laser and scanning noise. The signal is then demodulated by a lock-in amplifier (SR844, Stanford Research Systems) at the modulation frequency. The in-phase X output is fed back to the Olympus IO interface box (FV30-ANALOG) of the microscope. Image acquisition speed is limited by 30 µs time constant set for the lock-in amplifier. Correspondingly, we use 80 µs pixel dwell time, which gives a speed of 8.5 s frame-1 for a 320-by-320-pixel field of view. Laser powers are monitored through image acquisition by an internal power meter and power fluctuation are controlled within 5% by the laser system. 16-bit grey scale images are acquired by Fluoview software. SRS spectra were acquired by fixing the Stokes beam at 1031.2 nm and scanning the pump beam through the designated wavelength range point by point. 10 mM EdU (H2O) sample was used as a standard to give RIE of different probes. Fluorescence images were collected using the same Olympus FV3000 confocal microscope with CW laser excitation (405, 488, 561 and 640 nm, Coherent OBIS LX laser) and standard bandpass filter sets. The correlation coefficients (Pearson’s R value) between SRS images and fluorescence images were calculated using ‘Coloc 2’ tool of ImageJ.
To perform spontaneous Raman spectroscopy, spontaneous Raman spectra were acquired using an upright confocal Raman spectrometer (Horiba Raman microscope; Xplora plus). A 532 nm YAG laser is used to illuminate the sample with a power of 12 mW on sample through a 100 x, N.A. 0.9 objective (MPLANN; Olympus) with 100 µm slit and 500 µm hole. Spectro/Raman shift center was set to be 2000.04 cm-1 . With a 1200 grating, Raman shift ranges from 690.81 cm-1 to 3141.49 cm-1 was acquired to cover whole biological relevant Raman peaks. The acquired spectra were processed by the LabSpec 6 software for baseline correction.
Cyclopropenone caging has been previously adopted for photoactivation and subsequent biorthogonal labeling of fluorophores in fluorescence microscopy. […] Herein the alkyne Raman signal generation from photo-DIBO light-activation was first measured (FIG. 1A). […] Compared to 5-ethynyl-2′-deoxyuridine (EdU), the well-adopted benchmark for Raman intensity quantification, the relative Raman intensity to EdU (RIE) of the strained alkyne DIBO is only 1.8 (Table 1). […] Given this, it is reasoned that diphenylcyclopropenone (i.e. cyclopropenone-caged 1-yne, 1-cyclo, 1, FIG. 1A) should be a better photoactivatable Raman scaffold with higher Raman sensitivity after uncaging. Indeed, UV-uncaging of 1-cyclo (1), which started from a similarly weak Raman peak at 1860 cm^-1 from photo-DIBO, produced an intense sharp peak for 1-yne (2) at 2226 cm^-1 (FIG. 1B, dashed black vs solid blue spectra) with an improved RIE values to about 4

[3] = Photoactivation (UV-uncaging) monitored by time-series spontaneous Raman spectra; assay type: physicochemical
Procedure: The 365 nm UV light used to activate cyclopropenones comes from a UV handlamp (Analytik Jena UVP EL Series Lamp, UVLS-24, 4 Watt, 2 UV 254/365 nm, typically used for TLC monitoring in organic synthesis). The power of 365 nm UV of this handlamp was measured to be 15 mW/cm2 on samples.
Next, the photo-uncaging kinetics for both 1-cyclo (1) and 2-cyclo (3) were compared. […] With 365 nm lamp illumination, the characteristic peaks of cyclopropenones (~1860 cm^-1) continue to drop while the alkyne peaks (2226 cm^-1) gradually increase for both molecules (FIG. 1D). […] The progression of the UV-activation reactions could also be confirmed by the change in the corresponding absorption spectra (FIG. 6).

lipid droplets = test: Live-cell photo-uncaging lipid droplets imaging, SRS/fluorescence co-localization; assay type: cell-based; settings: live HeLa cells, SRS vs Lipid spot 610
Source text: as §1
Lipid droplets imaging by Me-LD (15): Cells were incubated in 20 µM Me-LD (15) with complete DMEM medium for 30 minutes in the incubator. Cells were washed with PBS three times before imaging. For colocalization, 0.5 x LipidSpot™ 610 (Biotium, #70069) was used to stain cells for 20 minutes. For photo-uncaging, 405 nm laser was used to scan the selected field of view for 2 minutes (1.6 mW).
Lipid droplets imaging by Cyclo-LD (17): Cells were washed with PBS for three times before labeling. Cells were then incubated in 20 µM Cyclo-LD (17) with PBS for 30 minutes in the incubator. Cells were washed with PBS three times before imaging. For colocalization, 0.5 x LipidSpot™ 610 (Biotium, #70069) was used to stain cells for 20 minutes. For photo-uncaging, 405 nm laser (1.6 mW) was used to scan the selected field of view for 2 minutes.

live HeLa cells = test: SRS imaging of live HeLa cells incubated with unmethylated probes before and after 405 nm illumination; assay type: cell-based; settings: 20 µM, 30 minutes of labeling; 2226 cm^-1 channel after 405 nm
Procedure: FIG. 7 provides exemplary results from SRS imaging of live HeLa cells incubated with 1-cyclo (1, 20 µM, 30 minutes of labeling, top) and Cyclo-Mito (7, 20 µM, 30 minutes of labeling, bottom) at the CH3 (2940 cm^-1) channel, and the expected uncaged alkyne channel (2226 cm^-1) before and after 405 nm illumination. Scale bar: 10 µm.
An integrated laser (picoEMERALD, Applied Physics and Electronics, Inc.) was used as a light source for both pump and Stokes beams. It produces 2 ps pump (tunable from 770 nm - 990 nm, bandwidth 0.5 nm, spectral bandwidth ~ 7 cm-1 ) and Stokes (1031.2 nm, spectral bandwidth 10 cm-1 ) beams with 80 MHz repetition rate. Stokes beam is modulated at 20 MHz by an internal electro-optic modulator. […] Laser powers are monitored through image acquisition by an internal power meter and power fluctuation are controlled within 5% by the laser system. […] Fluorescence images were collected using the same Olympus FV3000 confocal microscope with CW laser excitation (405, 488, 561 and 640 nm, Coherent OBIS LX laser) and standard bandpass filter sets. The correlation coefficients (Pearson’s R value) between SRS images and fluorescence images were calculated using ‘Coloc 2’ tool of ImageJ.

endoplasmic reticulum = test: Live-cell photo-uncaging ER imaging, SRS/fluorescence co-localization; assay type: cell-based; settings: live HeLa cells
Source text: as §1
ER imaging: Cells were incubated in 40 µM Me-ER (14) with complete DMEM medium for 2 hours in the incubator. Cells were washed with PBS three times before imaging. For colocalization, 0.5 µM ER-Tracker™ Red (Invitrogen, E34250) was used to stain cells for 1 hour. For photo-uncaging, 405 nm laser was used to scan the selected field of view for 2 minutes (1.6 mW).

lysosomes = test: Live-cell photo-uncaging lysosomes imaging, SRS/fluorescence co-localization; assay type: cell-based
Source text: as §1
Lysosomes imaging: Cells were incubated in 30 µM Me-Lyso (13) with complete DMEM medium for 2 hours in the incubator. Cells were washed with PBS three times before imaging. For colocalization, 0.4 x LysoView™ 488 (Biotium, #70067) was used to stain cells for 30 minutes. For photo-uncaging, 405 nm laser was used to scan the selected field of view for 2 minutes (1.6 mW).

mitochondria = test: Live-cell photo-uncaging mitochondria imaging, SRS/fluorescence co-localization; assay type: cell-based; settings: live HeLa cells
Source text: as §1
Mitochondria imaging: Cells were incubated in 16 µM Me-Mito (12) or Me-Mito^13C (16) with complete DMEM medium for 40 minutes in the incubator. Cells were washed with PBS three times before imaging. For colocalization, 80 nM MitoTracker™ Deep Red (Invitrogen, M22426) was used to stain cells for 25 minutes. […]

[4] = (HP)LC-MS for assessing the stability of cyclopropenone probes in physiological condition; assay type: physicochemical; settings: 10 mM cysteine (PBS), 37° C., HPLC trace
Procedure: The assessed probe was first dissolved in DMSO and later diluted in 10 mM cysteine (Sigma, 168149, dissolved in PBS) solution or DMEM (Corning, 35-015-CV) medium. Analytical HPLC coupled with mass spectrometry (LC-MS) was performed on Agilent 1290 infinity LC system using ZORBAX RRHD Eclipse Plus C18, 95 Å, 2.1 x 50 mm, 1.8 µm column with Agilent 6140 Series Quadrupole LCMS / LC-MS / MSD / Mass Spectrometer System. The mobile phase is water (0.1% AcOH) and acetonitrile with running method of gradient 5%-95% acetonitrile (1 ml/min, 4 min for total running time). The mass spectrometry detection region ranges from 100 to 800 AMU. The data shown in the main figures and supplementary figures are the absorption (280.8 nm) intensity traces.
It was hypothesized that this was likely because the cyclopropenone structures are susceptible to nucleophilic attack, leading to ring-opened α,β-unsaturated acids derivatives. Cysteines, glutathione, and other biological thiols are strong nucleophiles and could easily deactivate cyclopropenones. The stability of 1-cyclo (1) in 10 mM cysteine phosphate-buffered saline (PBS) at 37° C. was therefore tested, mimicking physiological conditions.

[5] = SRS vs ER tracker red, Fl/2205 cm^-1 channel
[6] = live HeLa cells, SRS vs Lysoview 488, Fl/2205 cm^-1 channel
[7] = SRS vs Mitotracker deep red, Fl/2225 cm^-1 channel

- Abs [1]: 283 nm
- εabs [1]: 32300 M⁻¹ cm⁻¹
- Raman Peak [2]: 2226 cm⁻¹
Compound: C(#Cc1ccccc1)c1ccccc1 [1-yne (2), diphenylacetylene]

- Abs [1]: 324 nm
- εabs [1]: 32400 M⁻¹ cm⁻¹
- RIE (relative Raman intensity to EdU) [2]: 7.5
- Raman Peak [2]: 2218 cm⁻¹
Compound: O=c1c(C#Cc2ccccc2)c1-c1ccccc1 [2-cyclo (3), 2-phenyl-3-(phenylethynyl)cycloprop-2-en-1-one]
- uncaging kinetics k ([3]; 365 nm illumination (15 mW/cm^2), increase of alkyne peak 2226 cm^-1): 0.020 s⁻¹
- uncaging kinetics, fold faster than 1-cyclo (1) ([3]; 365 nm lamp illumination): about 5 fold

- Abs [1]: 371 nm
- εabs [1]: 25500 M⁻¹ cm⁻¹
- RIE (relative Raman intensity to EdU) [2]: 13
- Raman Peak [2]: 2194 cm⁻¹
Compound: O=c1c(C#Cc2ccccc2)c(C#Cc2ccccc2)c1=O [3-cyclo (5), 3,4-Bis(phenylethynyl)-3-cyclobutene-1,2-dione]

Compound: O=c1c(-c2ccccc2)c1-c1ccc(OCCOCCOCCCCCCCl)cc1 [Cyclo-LD (17), 2-(4-(2-(2-((6-chlorohexyl)oxy)ethoxy)ethoxy)phenyl)-3-phenylcycloprop-2-en-1-one]
- correlation coefficient (Pearson's R value), set 1 (lipid droplets; Fl/2226 cm^-1 channel): 0.50
- correlation coefficient (Pearson's R value), set 2 (lipid droplets; Fl/2226 cm^-1 channel): 0.76

Compound: O=c1c(-c2ccccc2)c1-c1ccc(OCCC[P+](c2ccccc2)(c2ccccc2)c2ccccc2)cc1.[Br-] [Cyclo-Mito (7)]
- uncaging signals in labeled live cells (live HeLa cells): did not produce any observable uncaging signals

Compound: Cc1ccc(S(=O)(=O)NCCCOc2cc(C)c(-c3c(-c4c(C)cc(C)cc4C)c3=O)c(C)c2)cc1 [Me-ER (14)]
- targeting, photoactivation and imaging performances (endoplasmic reticulum): highly specific targeting
- correlation coefficient (Pearson's R value), set 1 (endoplasmic reticulum; [5]): 0.86
- correlation coefficient (Pearson's R value), set 2 (endoplasmic reticulum; [5]): 0.80
- correlation coefficient (Pearson's R value), set 3 (endoplasmic reticulum; [5]): 0.90

Compound: Cc1cc(C)c(-c2c(-c3c(C)cc(OCCOCCOCCCCCCCl)cc3C)c2=O)c(C)c1 [Me-LD (15)]
- correlation coefficient (Pearson's R value), set 1 (lipid droplets; Fl/2205 cm^-1 channel): 0.54
- correlation coefficient (Pearson's R value), set 2 (lipid droplets; Fl/2205 cm^-1 channel): 0.54
- correlation coefficient (Pearson's R value), set 3 (lipid droplets; Fl/2205 cm^-1 channel): 0.50

Compound: Cc1cc(C)c(-c2c(-c3c(C)cc(OCCN(C)C)cc3C)c2=O)c(C)c1 [Me-Lyso (13)]
- correlation coefficient (Pearson's R value), set 1 (lysosomes; [6]): 0.60
- correlation coefficient (Pearson's R value), set 2 (lysosomes; [6]): 0.67
- correlation coefficient (Pearson's R value), set 3 (lysosomes; [6]): 0.62
- lysosomes targeting (co-localization) (lysosomes; live cells co-labeled with Lysoview 488): desired co-localization

- alkyne Raman peak / SRS channel after uncaging ([2]; organelle probes after UV / 405 nm uncaging): 2205 cm⁻¹
- time stable to cysteine [4]: over 48 hours
Compound: Cc1cc(C)c(-c2c(-c3c(C)cc(OCCC[P+](c4ccccc4)(c4ccccc4)c4ccccc4)cc3C)c2=O)c(C)c1 [Me-Mito (12)]
- correlation coefficient (Pearson's R value), set 1 (mitochondria; [7]): 0.85
- correlation coefficient (Pearson's R value), set 2 (mitochondria; [7]): 0.82
- correlation coefficient (Pearson's R value), set 3 (mitochondria; [7]): 0.88
- SRS imaging at the alkyne channel after photoactivation (mitochondria; two minutes of 405 nm laser illumination, 2205 cm^-1): bright mitochondria pattern

- time stable to cysteine [4]: ≥ 24 h
Compound: Cc1cc(C)c(-c2c(-c3c(C)cc(O)cc3C)c2=O)c(C)c1 [compound 8]

- Abs [1]: 323 nm
- εabs [1]: 24200 M⁻¹ cm⁻¹
- RIE (relative Raman intensity to EdU) [2]: 1.8
- Raman Peak [2]: 2171 cm⁻¹
Compound: dibenzocyclooctynes [DIBO, reference compound]
